The values that follow are results of earlier work, collected in US8343778B2, “Microfluidic microarray assemblies and methods of manufacturing and using” (Simon Fraser University, priority 2004, dated 2013).

The target in the data set is T1, Ure2p (Saccharomyces cerevisiae, UniProt P23202).
T1 sequence (P23202 1-354): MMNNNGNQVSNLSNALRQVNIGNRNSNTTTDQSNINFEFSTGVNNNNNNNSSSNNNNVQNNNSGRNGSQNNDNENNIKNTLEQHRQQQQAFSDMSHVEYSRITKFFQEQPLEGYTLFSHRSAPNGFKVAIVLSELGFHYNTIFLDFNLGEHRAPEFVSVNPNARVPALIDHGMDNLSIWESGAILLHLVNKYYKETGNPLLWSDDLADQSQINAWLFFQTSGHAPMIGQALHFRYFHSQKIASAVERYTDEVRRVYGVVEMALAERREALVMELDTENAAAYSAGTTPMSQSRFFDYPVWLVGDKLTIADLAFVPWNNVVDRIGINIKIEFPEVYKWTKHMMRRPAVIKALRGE
As to conditions: high-density SMA of 1,3-dioxane-based small molecules exposed to fluorescently labeled Ure2p.

As to uretupamine, the “binding of fluorescently labeled Ure2p to arrayed small molecule” value is on record as “Ure2p-binding”.
